Several values for one entry are separate records, joined by “and”; a condition that tells them apart may be missing. Identical values can stand only once.
Legend:
[1] = Example 3 solution stability of fully diluted ready-to-use iloprost in IV bags (HPLC); format: physicochemical
Procedure: Iloprost 100 μg/mL injection product is administered to patients by IV bag infusion over a period of six hours. The fully diluted ready to use iloprost is prepared in pharmacy cleanroom using sterile preparation standards (USP Chapter <797>) by pharmacy trained and licensed staff. The fully diluted ready to use drug product may be prepared several hours ahead of treatment with storage at ambient conditions or several days ahead of treatment with storage at refrigerated (2-8° C.) conditions. The IV bags are prepared using empty sterile IV bags which are filled with 99 mL of 0.9% NaCl and 1.0 mL of iloprost 100 µg/mL injection product. The bags are then manually mixed gently to provide a uniform solution. […] IV Bag Sample Preparation: Two 50 mL syringes with 18-gauge needles were assembled. 1.0 mL syringe with 18-gauge needle was assembled. Using a 50 mL syringe, 50 mL of 0.9% NaCl was transferred into an empty IV bag (sterile, ICU Medical) using the injection port. Using a second 50 mL syringe, 49 mL of 0.9% NaCl was transferred into the same IV bag using the injection port resulting in 99 mL of solution. Using the 1 ml syringe, 1.0 mL of iloprost 100 μg/mL injection product was transferred into the IV bag using the injection port. The needle was removed and the port was securely closed. The IV bag was gently inverted several times to mix. During inversion, it was occasionally paused to squeeze the injection port area to ensure liquid rinsed into area several times. Sampling Procedure: For sampling, a 3 mL syringe was assembled with an 18-gauge needle. Using a 3 ml syringe, 2 mL of IV bag solution was withdrew through the injection port and 1 mL was transferred to a HPLC vial for neat injection and the other 1 ml was transferred to a back-up HPLC vial. HPLC vials were stored at refrigerated conditions 2-8° C. Sample Storage and Sampling: For each testing conditions (i-iv discussed above), 12 IV bag samples were prepared (6 IV bags for condition ia)-see below for sampling time). For condition i), all 12 IV bags were then placed into 25° C./60% RH stability chamber ensuring each bag is resting on its largest surface area side. After the first time point, the IV bags were removed from the chamber and each IV bag was mixed by inversion several times. Sampling from each IV bag was taken for HPLC analysis. After sampling, the IV bags were placed back into 25° C./60% RH stability chamber ensuring each bag is resting on its largest surface area side, until next sampling time. At each sampling time, the IV bags were removed from the chamber and each IV bag was mixed by inversion several times before samples were removed. For conditions ii) and iii), all 12 IV bags for each testing condition was placed into a 2-8° C. stability chamber ensuring each bag is resting on its largest surface area side. After 5 days have passed for condition ii) or after 8 days have passed for condition iii), the IV bags were removed from the chamber and allowed to equilibrate to room temperature. Each IV bag was mixed by inversion several times. Sampling from each IV bag was taken for HPLC analysis. Then the IV bags were placed in the 25° C./60% RH stability chamber and sampled at certain time points as discussed herein. […]

[2] = Example 1 safety and tolerability (adverse events, vital signs, ECG, laboratory); format: in vivo, human
Procedure: On Day 1, study drug was initiated at a starting dose of 0.5 ng/kg/min, and dose increases occurred every 30 minutes (+5 minutes) in increments of 0.5 ng/kg/min up to 2.0 ng/kg/min or the individual tolerated dose. If dose-limiting adverse events (e.g., headache, flushing, jaw pain, myalgia, nausea, or vomiting) occurred that could not be tolerated by the subject, or if the subject experienced symptomatic hypotension, then the dose was reduced in a step-wise manner by 0.5 ng/kg/min every 30 minutes (+5 minutes) until a tolerated dose was determined or the infusion was stopped until the symptoms resolved at which point the study drug was reinitiated at a previously tolerated dose. If symptomatic hypotension or a dose-limiting adverse event occurred during administration of iloprost at the starting dose (i.e., 0.5 ng/kg/min), the infusion was reduced to 0.25 ng/kg/min. If the dose of 0.25 ng/kg/min was not tolerated due to symptomatic hypotension or if a dose-limiting adverse event occurred, the study drug was discontinued, and re-initiation of the infusion could have been attempted after the event had resolved or had been treated. Blood pressure and heart rate were monitored 15 minutes (+5 minutes) prior to and after all dose changes. The maximum tolerated dose was maintained for the remaining 6-hour daily period. At the end of the 6-hour infusion period, the dose was stopped. Subjects were to be monitored for up to 1 hour after completion of study drug infusion (i.e., vital signs were obtained 15 minutes [±5 minutes] and 1 hour [±15 minutes] after completion of the infusion).
Vital signs were measured prior to study drug administration and at 15 minutes (±5 minutes) prior to and after all dose changes during the infusion. Additionally, vital signs were monitored at 15 minutes (±5 minutes) and 1 hour (±15 minutes) after completion of the 6-hour infusion.
Safety parameters included adverse events, physical examination findings, vital sign measurements (heart rate and blood pressure), 12-lead electrocardiogram (ECG) findings, and standard clinical laboratory measurements (chemistry and hematology).

[3] = Table 8A, IV bag 25° C./60% RH, 2 h
[4] = Table 8A, IV bag 25° C./60% RH, 4 h
[5] = Table 8A, IV bag 25° C./60% RH, 6 h
[6] = Table 8A, IV bag 25° C./60% RH, 8 h
[7] = Table 8A, IV bag 25° C./60% RH, 24 h
[8] = Table 8B, Batch 1, 25° C./60% RH, 8 hr
[9] = Table 8B, Batch 1, 25° C./60% RH, 12 hr
[10] = Table 8B, Batch 1, 25° C./60% RH, 48 hr
[11] = Table 8B, Batch 1, 25° C./60% RH, 96 hr
[12] = Table 8C, Batch 2, 25° C./60% RH, 8 hr
[13] = Table 8C, Batch 2, 25° C./60% RH, 12 hr
[14] = Table 8C, Batch 2, 25° C./60% RH, 48 hr
[15] = Table 8C, Batch 2, 25° C./60% RH, 96 hr
[16] = Table 8D, Batch 1, 5° C. for 5 days
[17] = Table 8D, Batch 1, 5° C. for 5 days, 25° C./60% RH for 8 hr
[18] = Table 8D, Batch 1, 5° C. for 5 days, 25° C./60% RH for 12 hr
[19] = Table 8E, Batch 2, 5° C. for 5 days
[20] = Table 8E, Batch 2, 5° C. for 5 days, 25° C./60% RH for 8 hr
[21] = Table 8E, Batch 2, 5° C. for 5 days, 25° C./60% for 12 hr

In the case of `CC#CCC(C)[C@H](O)/C=C/[C@@H]1[C@H]2C/C(=C/CCCC(=O)O)C[C@H]2C[C@H]1O` (stereo partly drawn) [Iloprost, (5E)-5-[(3aS,4R,5R,6aS)-5-hydroxy-4-[(E,3S)-3-hydroxy-4-methyloct-1-en-6-ynyl]-3,3a,4,5,6,6a-hexahydro-1H-pentalen-2-ylidene]pentanoic acid], the “% Initial” value [1, 3] is reported as 100.8% and 99.4% and 100.2% and 99.7% and 100.5% and 100.4%, the “Iloprost (%)” value [1, 3] is reported as 95.0% and 94.2% and 94.8% and 94.7% and 95.3% and the “% Initial” value [1, 4] is reported as 101.0% and 99.5% and 99.6% and 100.3% and 101.3% and 101.9%. The “Iloprost (%)” value [1, 4] was 95.2% and 94.3% and 94.7% and 95.5% and 96.7%, the “% Initial” value [1, 5] was 101.6% and 100.2% and 100.5% and 99.3% and 101.7% and 100.6% and the “Iloprost (%)” value [1, 5] was 95.7% and 95.0% and 95.1% and 93.7% and 95.9% and 95.4%. The “% Initial” value [1, 6] was 100.0% and 101.9% and 101.1% and 99.9%, the “Iloprost (%)” value [1, 6] was 94.3% and 94.8% and 94.6% and 96.2% and 95.3% and the “% Initial” value [1, 7] was 102.2% and 101.4% and 102.0% and 100.1% and 98.9% and 100.5%. For the same compound, the “Iloprost (%)” value [1, 7] was 97.0% and 95.5% and 96.7% and 94.7% and 93.4% and 94.8%, the “Iloprost (%)” value ([1]; Table 8A, IV bag, 1.0 mL 100 μg/mL product + 99 mL 0.9% NaCl, Initial, Samples 1-6) was 94.2% and 94.8% and 94.6% and 94.4% and 94.3% and 94.9% and the “% Initial” value [1, 8] was 100% and 104% and 101% and 103%. The “Iloprost” value [1, 8] was 973.6 ng/mL and 1010 ng/mL and 979.5 ng/mL and 1003 ng/mL and 977.2 ng/mL and 1007 ng/mL, the “% Initial” value [1, 9] was 103% and 104% and 105% and 99% and the “Iloprost” value [1, 9] was 1004 ng/mL and 1009 ng/mL and 978.2 ng/mL and 1042 ng/mL and 975.1 ng/mL and 1005 ng/mL. For the same compound, the “% Initial” value [1, 10] was 103% and 101% and 100%, the “Iloprost” value [1, 10] was 1004 ng/mL and 995.2 ng/mL and 968 ng/mL and 1001 ng/mL and 984.6 ng/mL and 977.3 ng/mL and the “% Initial” value [1, 11] was 104% and 105% and 103% and 102% and 101% and 100%. For the same compound, the “Iloprost” value [1, 11] was 1013 ng/mL and 1017 ng/mL and 970.9 ng/mL and 1014 ng/mL and 994.1 ng/mL and 971.5 ng/mL, the “Iloprost” value ([1]; Table 8B, Batch 1, IV bag, Initial (T = 0), Preparations 1-6) was 975.8 ng/mL and 977.5 ng/mL and 968.7 ng/mL and 942.8 ng/mL and 994.1 ng/mL and 981.9 ng/mL and the “% Initial” value [1, 12] was 102% and 101% and 100% and 96%. The “Iloprost” value [1, 12] was 995.8 ng/mL and 1002 ng/mL and 994.6 ng/mL and 1004 ng/mL and 998.8 ng/mL and 983.3 ng/mL, the “% Initial” value [1, 13] was 101% and 99% and 100% and 98% and the “Iloprost” value [1, 13] was 993.3 ng/mL and 984.1 ng/mL (2×) and 989.6 ng/mL and 994.8 ng/mL and 1005 ng/mL. The “% Initial” value [1, 14] was 101% and 99% and 104% and 100%, the “Iloprost” value [1, 14] was 993.7 ng/mL and 984.2 ng/mL and 994.4 ng/mL and 1032 ng/mL and 1005 ng/mL and 1015 ng/mL and the “% Initial” value [1, 15] was 102% and 99% and 101% and 100%. For the same compound, the “Iloprost” value [1, 15] was 1002 ng/mL and 979.5 ng/mL and 989 ng/mL and 1005 ng/mL and 996.3 ng/mL and 1027 ng/mL, the “Iloprost” value ([1]; Table 8C, Batch 2, IV bag, Initial (T = 0), Preparations 1-6) was 1021 ng/mL and 980.9 ng/mL and 990.7 ng/mL and 980.7 ng/mL and 994.4 ng/mL and 1001 ng/mL and the “% Initial” value [1, 16] was 104% and 98% and 101% and 100% and 99%. For the same compound, the “Iloprost” value [1, 16] was 1050 ng/mL and 931.9 ng/mL and 1024 ng/mL (2×) and 1020 ng/mL and 1001 ng/mL, the “% Initial” value [1, 17] was 99% and 100% and 98% and 102% and 101% and the “Iloprost” value [1, 17] was 1002 ng/mL and 957.3 ng/mL and 993.8 ng/mL and 1040 ng/mL and 1025 ng/mL and 1011 ng/mL. The “% Initial” value [1, 18] was 97% and 99% and 100% and 101%, the “Iloprost” value [1, 18] was 976.5 ng/mL and 943.2 ng/mL and 1015 ng/mL and 1031 ng/mL and 1010 ng/mL and 982.7 ng/mL and the “Iloprost” value ([1]; Table 8D, Batch 1, IV bag, Initial (T = 0)) was 996.6 ng/mL and 1007 ng/mL and 953.6 ng/mL and 1015 ng/mL and 1020 ng/mL and 1036 ng/mL. The “% Initial” value [1, 19] was 102% and 100% and 101%, the “Iloprost” value [1, 19] was 1026 ng/mL and 1009 ng/mL and 1025 ng/mL and 1030 ng/mL and 1011 ng/mL and 987.4 ng/mL and the “% Initial” value [1, 20] was 101% and 99% and 100% and 98%. For the same compound, the “Iloprost” value [1, 20] was 1023 ng/mL and 973.1 ng/mL and 1013 ng/mL and 1012 ng/mL and 996.7 ng/mL and 970.8 ng/mL, the “% Initial” value [1, 21] was 101% and 98% and 102% and 100% and the “Iloprost” value [1, 21] was 1022 ng/mL and 963.3 ng/mL and 1001 ng/mL. The “Iloprost” value ([1]; Table 8E, Batch 2, IV bag, Initial (T = 0)) was 988.4 ng/mL, the “% Initial” value ([1]; Table 8F (5° C. for 8 days to 25° C./60% RH), Batch 1, time point 5° C. for 5 days [sic]) was 103% and 99% and 102% and 100% and the “% Initial” value ([1]; Table 8F, Batch 1, 5° C. for 8 days, 25° C./60% RH for 8 hr) was 99% and 98% and 107% and 100%. For the same compound, the “% Initial” value ([1]; Table 8F, Batch 1, 5° C. for 8 days, 25° C./60% RH for 12 hr) was 101% and 100% and 99%, the “% Initial” value ([1]; Table 8G (5° C. for 8 days to 25° C./60% RH), Batch 2, time point 5° C. for 5 days [sic]) was 99% and 97% and 102% and the TEAE abdominal pain ([2]; human, in vivo, 5 days) was 4 [23.5%] subjects (%). For the same compound, the TEAE flushing ([2]; human, in vivo, 5 days) was 5 [29.4%] subjects (%), the TEAE headache ([2]; human, in vivo, 5 days) was 16 [94.1%] subjects (%) and the TEAE nausea ([2]; human, in vivo, 5 days) was 11 [64.7%] subjects (%). For the same compound, the “subjects who experienced TEAEs considered severe by the Investigator” value ([2]; human, in vivo, 5 days) was “Two (11.8%) subjects (%)”, the “subjects who experienced a TEAE” value ([2]; human, in vivo, 5 days) was 17 (100.0%) subjects (%) and the “TEAEs related to vital signs, physical examination findings, or ECGs” value ([2]; in vivo) was “no TEAEs”. The bradycardia or tachycardia ([2]; in vivo) was “no bradycardia or tachycardia”, the “changes in chemistry or hematology laboratory values” ([2]; in vivo) was “no clinically significant changes” and the “hypertensive or hypotensive events” value ([2]; in vivo) was “no hypertensive or hypotensive events”. The “deaths, SAEs, AESIs, TEAEs leading to study drug discontinuation” value ([2]; whole study) was “no deaths, SAEs, AESIs, or TEAEs leading to study drug discontinuation”.

— US12409184B2, “Iloprost compositions and formulations thereof” (BTG INTERNATIONAL INC., priority 2020, dated 2025)
